According to patent US20120003270A1, “6-SUBSTITUTED ISOFLAVONOID COMPOUNDS AND USES THEREOF” (priority 2008, published 2012):

Key:
HUVECs = test: Microscopic appearance of HUVECs; format: cell-based, human
Experimental: An effect on cell growth was observed microscopically at 100 μM but not at the lower doses. Normal HUVECs were predominantly epithelioid but included some spindle shaped cells. Cells were mainly healthy and viable, as indicated by their translucent appearance and adherence to the culture dish. Floating cells were presumed non-viable.

AA-induced ear swelling = test: Murine ear inflammation assay, arachidonic acid (AA); format: in vivo, mouse; settings: 25 mg/kg i/p; for Change in ear thickness (mean ± SD, ×0.01 mm): 1 hr post-AA
Experimental: Groups of 5-6 female BALB/c mice (ARC, WA, Australia), weighing 15-21 g were injected intraperitoneally (i/p) with selected compounds of the formula (I) at 25 mg/kg delivered in polyethylene glycol (PEG) 400: phosphate buffered saline (PBS) 1:1 or ethanol: propanediol:PBS 4:9:7 either 30 min prior to or immediately before the inflammogen was applied to the ears. Mice were anaesthetised using isoflurane and baseline thickness of both ears was measured using a spring micrometer. Each mouse received a total of […] of either AA in ethanol (50 mg/ml or 200 mg/ml) or PMA in either ethanol or acetone (0.2 mg/ml) applied to the inner and outer surfaces of each pinna (i.e. 0.5 mg or 2 mg AA or 2 μg PMA per ear). Mice were anaesthetised again to re-measure the ears at 1 hr post-AA application and 5 hr after PMA. The difference in ear swelling pre- and post-application of inflammogen for each ear was calculated, and the average for the two ears of each mouse taken. The difference in mean swelling of each test group compared to the group given vehicle alone was calculated using a general ANOVA using Dunnett's Multiple Comparison test when multiple compounds were tested in the one experiment or a two-tailed unpaired t-test when only one compound was tested (Prism 4, Graphpad Software).

prostacyclin (PGI2) = test: 6-keto PGF1α (prostacyclin) synthesis in IL-1β stimulated HUVECs (RIA); format: cell-based, human; settings: overnight, mean+SEM, n=3
Experimental: Cultured human umbilical vein endothelial cells (HUVECs—Vascular Biology Laboratory, Hanson Institute, Adelaide SA) were removed harvested in 0.25% trypsin-EDTA. After quenching and further washing in RPMI-10% FCS, the cells were resuspended in fresh medium at 1-1.5×10^5 cells per ml and plated out in gelatin coated wells at 2 ml per well. After incubation overnight in 5% CO2 at 37° C., the medium was refreshed and the cells returned to the incubator and allowed to equilibrate for approximately 2 h. Test compounds at concentrations of 0, 1, 10 or 100 μM were added to the cells, and 30 minutes later, stimulated by interleukin-1β (IL-1β-10 μl of a 2 ng/ml solution). After overnight incubation at 37° C., supernatants were collected by centrifugation at 2000 rpm for 5 min and stored at −20° C. Production of prostacyclin after overnight incubation was measured by radioimmunoassay (RIA). Because PGI2 is labile in aqueous medium, the stable hydrolysis product 6-keto PGF1α, was measured as a surrogate marker. Results are expressed as mean+SEM, n=3. Differences between means were analysed by one-way ANOVA followed by Tukey's test for multiple comparisons. Differences between means were regarded as significant when p<0.05.

[1] = tested on: neonatal fibroblast foreskin (NFF); test: Toxicity in normal cells (MTT), NFF; format: cell-based; settings: Homo sapiens, 120 h, 5 days, top concentration 150 μM, read-out: Normal cell viability IC50
Experimental: Human neonatal fibroblast foreskin (NFF—a gift from Dr. Peter Parsons, Queensland Institute of Medical Research) or rabbit kidney (RK-13—a gift from Prof. Miller Whalley, Macquarie University) cells were seeded into 96 well plates and cultured in RPMI supplemented with 10% FCS (CSL, Australia), penicillin (100 U/ml), streptomycin ([…]), L-glutamine (2 mM) and sodium bicarbonate (1.2 g/L) at 37° C. and 5% CO2 for 24 hours until cells had attached and entered log phase of growth. Test compounds were added in serial two-fold dilutions from 150 μM in triplicate and incubated for a further 5 days. MTT was then added to each well, incubated for 3 hours at 37° C., after which the medium was tipped off. Following the addition of DMSO, the absorbance for each well was read on a plate reader. The assays were repeated at least twice.

iNOS = test: NO synthesis in LPS-stimulated RAW 264.7 (Griess); format: cell-based, mouse; settings: LPS 50 ng/ml, 16 hrs
Experimental: The mouse macrophage cell line RAW 264.7 was cultured in DMEM supplemented with foetal calf serum (FCS), 2 mM glutamine and 50 U/ml penicillin/streptomycin. Cells were treated with either the compounds of the formula (I) (in 0.025% DMSO) or vehicle alone, and added one hour before 50 ng/ml LPS, which induces iNOS and the production of NO. After incubation for 16 hrs, culture media was collected. Nitrite concentration is a quantitative indicator of NO production and was determined by the Griess Reaction. Briefly, 100 μL of Griess reagent was added to 50 μL of each supernatant in duplicate. The absorbance at 550 nm was measured (Molecular Devices, SpectraMax 250 microplate spectrophotometer, CA, USA), and nitrite concentrations were determined against a standard curve of sodium nitrite.

[2] = Pharmacokinetics after a single oral dose in mice; format: in vivo, mouse; settings: serum; for half-life / AUC: mouse; for half-life: oral, 25 mg/kg, unconjugated, one phase exponential decay, read-out: t1/2 (free); for AUC: oral 25 mg/kg in PEG 400/PBS 1:1; for AUCfree/AUCtotal / [max]free (μM, mean ± SD): oral 25 mg/kg
Experimental: The pharmacokinetic (PK) profiles of compounds (1) and (3) were examined following oral administration in PEG 400/PBS 1:1 at a dose of 25 mg/kg. For each experiment, three animals were allocated per time point (15 min, 30 min, 60 min, 90 min, 4 hr and 24 hr). Mice were killed using cervical dislocation and serum collected via cardiac puncture. Faeces and urine, where available, were also collected. Samples were stored at −80° C. and analysed by LC-MS in-house. The limit of detection was 20 ng/ml.
In Table 23 (and Table 24), “AUC” represents the area under the serum concentration versus time curve, expressed as μM*hour/L. This number assesses absorption and clearance in a relative way. The higher the number, the more compound has been absorbed and the longer it has remained in circulation. “AUCfree” refers to the area under the curve for unconjugated or free analogue, whereas “AUCtotal” refers to the area under the curve for the free and conjugated analogue combined.
“[max]” refers to the maximum concentration observed in serum. These measurements also give some understanding of how well a compound is absorbed.
The ratio of the AUCfree to the AUCtotal gives a relative measure of how much of the administered compound i.e. ‘free’ remains either in circulation compared to how much of the compound is conjugated.
“t1/2” is the half life, i.e. the time taken for the serum concentration to fall by half. The elimination of a drug is usually an exponential (logarithmic) process, so that a constant proportion is eliminated per unit time. […] The first refers to the t1/2 of the unconjugated analogue and the second the t1/2 of the total (free plus conjugated) analogue.

SMILES | Microscopic appearance of treated cells (HUVECs) | % Change compared with vehicle (AA-induced ear swelling) | Change in ear thickness (mean ± SD, ×0.01 mm) (AA-induced ear swelling) | PGF1α (prostacyclin (PGI2); 1 μM) | PGF1α (prostacyclin (PGI2); 10 μM) | PGF1α (prostacyclin (PGI2); 100 μM) | IC50 [1] | NO (μM) (iNOS; 1 μM) | NO (iNOS; 10 μM) | half-life [2] | AUC [2] | AUCfree/AUCtotal [2] | [max]free (μM, mean ± SD) [2] | PGF1α (pg/ml) (prostacyclin (PGI2); 10 μM) | NO (iNOS; 1 μM)
CN(C)Cc1cc2c(cc1O)OCC(c1ccc(O)cc1)=C2 [Compound (1)] | appeared healthy | −7.0% | 24.1 ± 0.1 ×0.01 mm | 0.667 ± 0.088 pg/mL | 0.584 ± 0.059 pg/mL | 0.277 ± 0.07 pg/mL | 64.1 ± 9.6 µM | 17.27 ± 0^ μM | 5.29 ± 0.15 µM | 9 min | 0.127 µM·h | 33% | 0.13 ± 0.1 µM |  | 
O=C(O)C1CCCN1Cc1cc2c(cc1O)OCC(c1ccc(O)cc1)=C2 (centres unmarked) [Compound (3)] | appeared healthy | −5.9% | 22.2 ± 1.9 ×0.01 mm | 0.353 ± 0.045 pg/mL |  | 0.308 ± 0.065 pg/mL | 111 ± 67.1 µM |  | 21.79 ± 0.82 µM | 28 min | 0.108 µM·h | 12% | 0.03 ± 0.01 µM | 0.335 ± 0.039^ pg/ml | 31.33 ± 0.16 µM
